Measured values taken from ChEMBL document CHEMBL1201862, “PubChem BioAssay data set” (2004).
Values belong to the compound of their own block, whether it stands above or below them. Calls of active or inactive are those of the source.

Tests used:
Protein Wnt-3a = Protein Wnt-3a (Mus musculus, UniProt P27467); test: antagonism of Wnt3a pathway luciferase reporter – Wnt-LIGHT cells, luminescence, selectivity assay for Gli-SUFU antagonist project, dose response (AID 651570); format: functional; details: read-out: IC50_Mean;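 note: Wnt-LIGHT reporter cells stimulated with conditioned medium from Wnt3a-producing cells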
Sequence of Protein Wnt-3a (P27467 whole entry): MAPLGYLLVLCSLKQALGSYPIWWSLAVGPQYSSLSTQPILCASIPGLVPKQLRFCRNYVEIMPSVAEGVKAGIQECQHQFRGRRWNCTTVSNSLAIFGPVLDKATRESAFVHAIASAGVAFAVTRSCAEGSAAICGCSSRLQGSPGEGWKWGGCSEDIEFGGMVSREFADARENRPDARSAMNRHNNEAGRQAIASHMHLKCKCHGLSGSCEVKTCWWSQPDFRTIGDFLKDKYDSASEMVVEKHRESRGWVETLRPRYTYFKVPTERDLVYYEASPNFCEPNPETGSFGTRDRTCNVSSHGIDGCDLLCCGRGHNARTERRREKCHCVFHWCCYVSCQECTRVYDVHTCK

[1] = non-specific 3'UTR reporter inhibition in Clone20-Shn3RL – cell-based, Renilla luciferase, cherry-picked, counter-screen for Shn3 inhibitor project, dose response (AID 624133); format: functional
[2] = loss of viability in HepG2 cells – cell-based, CellTiter-Glo, cherry-picked, cytotoxicity control for Shn3 inhibitor project, dose response (AID 624134); format: functional
[3] = reduction of Shn3 3'UTR-driven luciferase in osteoblasts – cell-based, Clone20 osteoblasts, firefly luciferase, cherry-picked, dose response (AID 624132); format: functional;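 note: firefly luciferase luminescence from reporter carrying the Shn3 3'UTR in osteoblasts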
INS1 = test: INS-1E survival protection against cytokine death – cell-based, luminescence, retest, dose response (AID 449756); format: functional; details: Rattus norvegicus;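 note: cell death triggered by IL-1 beta plus TNF-alpha plus IFN-gamma mixture; protective hits raise ATP signal compared with cytokine alone wells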
Troponin, cardiac muscle = Troponin, cardiac muscle (Homo sapiens, UniProt P19429+P45379+P63316); test: Fluorescence-based biochemical high throughput dose response assay for activators of the calcium sensitivity of cardiac Regulated Thin Filaments (RTF). [Related pubchem assays (depositor defined):AID493008, AID493018, AID504382, AID504383]; format: protein-complex assay
Cytochrome P450 2C19 = Cytochrome P450 2C19 (Homo sapiens, UniProt P33261); test: Cytochrome panel assay with activity outcomes. Panel member name: p450-cyp2c19 Compounds with AC50 equal or less than 10 uM are considered active; format: functional; details: read-out: AC50
Sequence of Cytochrome P450 2C19 (P33261 whole entry): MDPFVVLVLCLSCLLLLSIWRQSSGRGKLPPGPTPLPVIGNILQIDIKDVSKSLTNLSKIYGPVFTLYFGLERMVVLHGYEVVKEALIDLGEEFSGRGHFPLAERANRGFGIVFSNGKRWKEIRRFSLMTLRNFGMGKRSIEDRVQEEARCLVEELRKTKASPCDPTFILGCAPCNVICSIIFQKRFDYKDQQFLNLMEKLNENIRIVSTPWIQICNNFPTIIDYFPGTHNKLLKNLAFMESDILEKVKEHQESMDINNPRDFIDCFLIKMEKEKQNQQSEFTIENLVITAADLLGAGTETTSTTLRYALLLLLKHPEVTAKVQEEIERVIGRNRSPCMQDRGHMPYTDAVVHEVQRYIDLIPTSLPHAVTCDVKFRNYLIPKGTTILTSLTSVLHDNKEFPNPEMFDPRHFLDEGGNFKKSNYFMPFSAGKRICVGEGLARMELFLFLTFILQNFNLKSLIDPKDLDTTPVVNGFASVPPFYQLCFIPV

Cytochrome P450 2D6 = Cytochrome P450 2D6 (Homo sapiens, UniProt P10635);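 note: CYP2D6 member of a cytochrome P450 panel assay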
Sequence of Cytochrome P450 2D6 (P10635 whole entry): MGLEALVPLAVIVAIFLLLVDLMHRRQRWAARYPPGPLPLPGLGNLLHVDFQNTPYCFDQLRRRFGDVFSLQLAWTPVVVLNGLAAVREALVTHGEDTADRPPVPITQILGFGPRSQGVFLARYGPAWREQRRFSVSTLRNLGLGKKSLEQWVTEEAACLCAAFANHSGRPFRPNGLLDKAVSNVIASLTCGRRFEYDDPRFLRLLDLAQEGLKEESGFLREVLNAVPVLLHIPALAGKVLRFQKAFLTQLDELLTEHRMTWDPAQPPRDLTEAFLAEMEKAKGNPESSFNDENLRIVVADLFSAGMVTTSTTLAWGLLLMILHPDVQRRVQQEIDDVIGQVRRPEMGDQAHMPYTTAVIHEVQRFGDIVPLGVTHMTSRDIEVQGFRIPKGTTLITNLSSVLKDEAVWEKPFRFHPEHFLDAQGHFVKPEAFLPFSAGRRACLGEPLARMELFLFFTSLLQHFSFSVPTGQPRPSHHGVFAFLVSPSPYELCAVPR

Cytochrome P450 3A4 = Cytochrome P450 3A4 (Homo sapiens, UniProt P08684);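 note: CYP3A4 tested as one member of a cytochrome P450 panel screen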
Sequence of Cytochrome P450 3A4 (P08684 whole entry): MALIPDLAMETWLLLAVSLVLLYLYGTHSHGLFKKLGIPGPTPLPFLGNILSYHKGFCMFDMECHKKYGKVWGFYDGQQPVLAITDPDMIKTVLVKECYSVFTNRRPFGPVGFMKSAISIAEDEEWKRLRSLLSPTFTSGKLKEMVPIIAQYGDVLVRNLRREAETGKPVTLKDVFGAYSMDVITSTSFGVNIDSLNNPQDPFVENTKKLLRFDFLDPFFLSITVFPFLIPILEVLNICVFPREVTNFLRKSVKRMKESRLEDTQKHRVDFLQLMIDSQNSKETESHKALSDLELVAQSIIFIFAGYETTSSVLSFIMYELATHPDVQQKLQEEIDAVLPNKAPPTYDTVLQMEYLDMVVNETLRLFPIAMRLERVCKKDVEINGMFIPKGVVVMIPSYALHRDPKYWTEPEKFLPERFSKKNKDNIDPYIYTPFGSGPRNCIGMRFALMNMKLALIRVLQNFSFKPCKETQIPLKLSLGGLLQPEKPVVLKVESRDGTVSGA

Cytochrome P450 1A2 = biological target: T1, Cytochrome P450 1A2 (Homo sapiens, UniProt P05177);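 note: PubChem cytochrome P450 panel assay, CYP1A2 panel member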
T1 sequence (P05177 whole entry): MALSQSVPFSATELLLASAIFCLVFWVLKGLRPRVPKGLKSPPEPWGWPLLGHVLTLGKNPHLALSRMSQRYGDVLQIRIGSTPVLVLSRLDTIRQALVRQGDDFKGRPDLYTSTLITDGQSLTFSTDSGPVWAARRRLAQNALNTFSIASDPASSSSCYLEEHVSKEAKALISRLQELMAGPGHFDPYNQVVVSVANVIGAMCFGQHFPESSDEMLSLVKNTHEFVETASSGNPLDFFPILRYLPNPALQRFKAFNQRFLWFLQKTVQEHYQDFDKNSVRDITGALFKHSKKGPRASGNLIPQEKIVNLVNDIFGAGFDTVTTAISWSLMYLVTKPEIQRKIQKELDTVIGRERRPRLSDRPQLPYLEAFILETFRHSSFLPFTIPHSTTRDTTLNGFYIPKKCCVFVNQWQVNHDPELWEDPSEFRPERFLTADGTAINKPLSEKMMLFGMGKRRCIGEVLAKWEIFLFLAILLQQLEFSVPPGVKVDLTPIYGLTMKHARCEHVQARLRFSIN

Cytochrome P450 2C9 = Cytochrome P450 2C9 (Homo sapiens, UniProt P11712)
Sequence of Cytochrome P450 2C9 (P11712 whole entry): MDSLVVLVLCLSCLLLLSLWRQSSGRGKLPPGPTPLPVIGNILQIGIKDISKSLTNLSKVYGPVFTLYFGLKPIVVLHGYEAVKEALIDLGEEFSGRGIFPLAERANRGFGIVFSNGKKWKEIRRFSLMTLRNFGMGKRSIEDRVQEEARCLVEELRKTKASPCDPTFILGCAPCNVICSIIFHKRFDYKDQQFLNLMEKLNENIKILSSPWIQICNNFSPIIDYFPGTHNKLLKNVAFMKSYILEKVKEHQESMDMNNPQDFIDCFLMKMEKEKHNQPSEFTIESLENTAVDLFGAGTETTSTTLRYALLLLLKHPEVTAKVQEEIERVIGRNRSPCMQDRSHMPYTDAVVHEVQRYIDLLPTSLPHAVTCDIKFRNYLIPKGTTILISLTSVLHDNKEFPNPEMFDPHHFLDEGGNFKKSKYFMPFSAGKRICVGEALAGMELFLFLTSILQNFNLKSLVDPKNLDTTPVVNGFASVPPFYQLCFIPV

[4] = biological target: Glucose-6-phosphate 1-dehydrogenase (Homo sapiens, UniProt P11413); test: inhibition of Homo sapiens G6PD, dose series – biochemical, fluorescence, selectivity assay for P. falciparum G6PD inhibitor project, dose response (AID 504792); format: functional
Sequence of Glucose-6-phosphate 1-dehydrogenase (P11413 whole entry): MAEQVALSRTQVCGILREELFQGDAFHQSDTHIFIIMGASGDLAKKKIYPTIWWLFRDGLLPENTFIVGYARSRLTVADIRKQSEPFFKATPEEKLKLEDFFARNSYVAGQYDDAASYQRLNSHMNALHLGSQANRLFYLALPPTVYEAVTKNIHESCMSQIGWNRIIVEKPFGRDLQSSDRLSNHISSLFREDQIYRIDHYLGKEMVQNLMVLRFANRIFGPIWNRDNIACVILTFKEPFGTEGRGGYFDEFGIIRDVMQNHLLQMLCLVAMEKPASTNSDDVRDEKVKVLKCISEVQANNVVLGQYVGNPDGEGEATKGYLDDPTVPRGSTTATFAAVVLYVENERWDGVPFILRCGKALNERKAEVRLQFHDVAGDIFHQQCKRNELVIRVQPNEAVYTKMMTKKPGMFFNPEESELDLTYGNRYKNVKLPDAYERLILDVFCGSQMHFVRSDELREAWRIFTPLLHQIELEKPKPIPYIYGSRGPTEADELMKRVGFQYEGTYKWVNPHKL

[5] = Luminescence Cell-Based Dose Retest to Confirm Inhibitors of Cancer Stem Cells. [Related pubchem assays (depositor defined):AID2717, AID2721]; format: functional; details: Homo sapiens
Phospholipase A2 = Phospholipase A2 (Homo sapiens, UniProt P04054); format: functional;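 note: confirmatory dose-response counterscreen on phospholipase A2, testing hits that came from an ultra-high-throughput screen for ATG4B inhibitors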
Sequence of Phospholipase A2 (P04054 whole entry): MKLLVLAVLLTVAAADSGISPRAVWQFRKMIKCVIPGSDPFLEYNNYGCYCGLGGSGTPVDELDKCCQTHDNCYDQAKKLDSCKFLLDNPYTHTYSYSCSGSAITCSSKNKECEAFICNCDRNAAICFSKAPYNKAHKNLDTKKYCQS

Cysteine protease ATG4B = biological target: T2, Cysteine protease ATG4B (Homo sapiens, UniProt Q9Y4P1); format: functional;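 note: Fluorescence-based dose-response confirmation assay measuring inhibition of ATG4B activity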
T2 sequence (Q9Y4P1 whole entry): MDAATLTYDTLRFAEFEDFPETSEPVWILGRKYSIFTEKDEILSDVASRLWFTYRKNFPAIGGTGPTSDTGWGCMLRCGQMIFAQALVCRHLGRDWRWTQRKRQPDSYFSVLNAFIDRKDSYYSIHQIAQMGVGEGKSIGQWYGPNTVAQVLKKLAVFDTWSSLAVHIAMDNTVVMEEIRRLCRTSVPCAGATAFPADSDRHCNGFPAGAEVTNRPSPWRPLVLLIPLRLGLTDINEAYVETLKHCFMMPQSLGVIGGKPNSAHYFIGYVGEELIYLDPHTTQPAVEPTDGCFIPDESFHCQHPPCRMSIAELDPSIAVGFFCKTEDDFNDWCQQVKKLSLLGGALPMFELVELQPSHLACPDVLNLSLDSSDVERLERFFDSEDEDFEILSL

[6] = biological target: FAD-linked sulfhydryl oxidase ALR (Homo sapiens, UniProt P55789); test: ALR-catalysed DTT oxidation blockers – biochemical, H2O2 detection, luminescence, cherry-pick, dose response (AID 493248)
Sequence of FAD-linked sulfhydryl oxidase ALR (P55789 whole entry): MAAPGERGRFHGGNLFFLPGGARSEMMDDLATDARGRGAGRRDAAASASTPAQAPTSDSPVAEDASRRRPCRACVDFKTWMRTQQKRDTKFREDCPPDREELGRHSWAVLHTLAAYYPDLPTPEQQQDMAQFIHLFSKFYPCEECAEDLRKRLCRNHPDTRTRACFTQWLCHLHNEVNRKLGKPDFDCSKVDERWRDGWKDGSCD

[7] = NIH3T3 cell viability loss – ATP luminescence, mouse fibroblasts, counter-screen, dose response (AID 2010); format: functional, cell-based;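 note: cells exposed to compound for about 90 hours before reading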
[8] = Trypanosoma cruzi growth suppression in host cells – NIH3T3 host cells, beta-gal luminescence, confirmation (AID 2044); format: functional, cell-based;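 note: intracellular parasites grown in NIH/3T3 mouse fibroblasts as host cells; luminescent beta-galactosidase reporter signal from transgenic T. cruzi replicating inside host cells; inhibitors lower the luminescence signal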
HEK293 = test: EBV LMP1 TES2 canonical NF-kB signalling blockers – cell-based, HEK293, luciferase, cherry-pick, dose response (AID 588343); format: functional; details: Homo sapiens
[9] = intracellular Trypanosoma cruzi inhibitors in host cells – cell-based, plate reader, cherry-pick samples, set 3, dose response (AID 651818); format: functional;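 note: compounds incubated with infected cells for about four days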

SMILES: O=C(c1cnc(N2CCN(c3ccccn3)CC2)c2ccccc12)N1CCN(c2cccc(Cl)c2)CC1
IC50 (Protein Wnt-3a): 7.02 µM (active)
AC50 [1]: 3.68 µM (active)
AC50 [2]: 59.9 µM (active)
AC50 [3]: 1.99 µM (active)
AC50 (INS1): 6.14 µM (active)

EC50 (Troponin, cardiac muscle): > 71.5 µM (inactive)
SMILES: Cn1nc(NC(=O)C2CCC2C(=O)O)c2c(F)cccc21 (centres undefined)

AC50 (Cytochrome P450 2C19): 15.8 µM (inconclusive)
AC50 (Cytochrome P450 2D6): 7.94 µM (inconclusive)
AC50 (Cytochrome P450 3A4): inconclusive
AC50 (Cytochrome P450 1A2): 15.8 µM (inconclusive)
AC50 (Cytochrome P450 2C9): 12.6 µM (inconclusive)
SMILES: O=C(CCCN1CCN(c2ccccn2)CC1)c1ccc(F)cc1 [AZAPERONE]

IC50 [4]: > 80 µM (inactive)
SMILES: O=C1CCC[C@@H]2[C@@H](Cc3ccccc3)[C@H](N3CCN(c4ccccc4)CC3)C[C@@H]3CCN1[C@@H]32

SMILES: Cc1ccc(/C=C/C(=O)NCC2COc3ccccc3O2)o1 (centres undefined)
IC50 [4]: > 80 µM (inactive)
AC50 [5]: 33.1 µM (active)

AC50 (Cytochrome P450 3A4): inconclusive
SMILES: O=C(c1ccco1)N1CCC2(CC1)CCN(c1ccc(-c3ccccc3)cc1)CC2

IC50 (Phospholipase A2): 2.83 µM (active)
IC50 (Cysteine protease ATG4B): 8.65 µM (active)
SMILES: Cc1ccc(C(=O)O/N=C2\CCCc3ccccc32)cc1

EC50 (Troponin, cardiac muscle): 6.01 µM (active)
AC50 [6]: 2.74 µM (active)
SMILES: CCN(CC)c1ccc(/C=C2\SC(=N)NC2=O)cc1

SMILES: CC(C)(C)c1ccc(CN2C3=NCCCN3c3ccccc32)cc1
IC50 (Protein Wnt-3a): 2.94 µM (active)
EC50 [7]: > 60 µM (not active)
EC50 [8]: 0.387 µM (active)
AC50 [1]: 0.978 µM (active)
AC50 [2]: 21.8 µM (active)
AC50 [3]: 0.836 µM (active)

SMILES: Cc1ccsc1-c1nc(CSCC(=O)N2CCN(c3ccccc3)CC2)c(C)o1
AC50 (HEK293): 225 µM (active)

IC50 (Phospholipase A2): 12.3 µM (active)
IC50 (Cysteine protease ATG4B): 17.9 µM (active)
SMILES: COC(=O)c1ccc(C(=O)N2CCCC(Nc3ccc(C(C)C)cc3)C2)nc1 (centres undefined)

SMILES: Cc1ccc(S(=O)(=O)Nc2ccc3c(c2)C(=O)N([C@@H](C)CO)C[C@H](C)[C@H](CN(C)Cc2ccc(Cl)c(Cl)c2)O3)cc1
AC50 [9]: 5.67 µM (active)
